From publication PMC12388523, “Flavonoids and Sesquiterpene Lactones from Lychnophora ericoides (Arnica-Do-Cerrado) and Their In Vitro Effects on Multiple Myeloma and Acute Myeloid Leukemia” (Metabolites, 2025)

Legend:
HS-5 cells [1] = tested on: HS-5 cells; parameters: method as in PMID 36768497; details: cited from earlier work
KB cell line = tested on: KB cell line; parameters: method as in PMID 17089326; details: cited from earlier work
HL-60 cells [2] = test: Proliferation, [3H]-thymidine uptake, HL-60; type: cell-based; details: for IC50: Homo sapiens, HL-60, 72 h, 95% confidence interval in brackets, read-out: IC50 inhibition of proliferation
Procedure: (§1) Acute myeloid leukemia cell line HL-60 and multiple myeloma cell lines AMO-1 and KMS-12-PE were obtained from the German Collection of Microorganisms and Cell Cultures (DSMZ), Braunschweig, Germany, and non-tumorigenic stromal cell line HS-5 was acquired from the American Type Culture Collection (ATCC, Manassas, VA, USA). All cell lines were cultured in RPMI 1640 medium without phenol red (Pan Biotech, Aidenbach, Germany), supplemented with 2 mM glutamine, 100 U/mL penicillin, 100 µg/mL streptomycin (Sigma-Aldrich, St. Louis, MO, USA), and 10% fetal bovine serum (FBS Maximus, Catus Biotech GmbH, Tutzing, Germany) at 37 °C in a humidified atmosphere of 5% CO2/95% air. Cells were fed twice weekly. Logarithmically growing cells were resuspended at 1 × 10^5 cells/mL, plated in triplicate in round-bottom 96-well plates (100 µL per well; Falcon, Becton Dickinson, Franklin Lakes, NJ, USA), and incubated at 37 °C in 5% CO2/95% air for 2 h. Subsequently, the compounds were adjusted in the cell culture medium to reach the final concentrations in a total volume of 150 µL and incubated for an additional 72 h. Cell proliferation was assessed by [^3H]-thymidine uptake. Each well was exposed to 2 µCi [^3H]-thymidine (Hartmann Analytic, Braunschweig, Germany) during the final 12–16 h of incubation. Cells were harvested using a semi-automated device, and [^3H]-thymidine incorporation (expressed in counts per minute, cpm) was measured with a scintillation counter (MicroBeta TriLux, PerkinElmer, Waltham, MA, USA). Metabolic activity was assessed by resazurin staining. Resazurin (Carl Roth, Karlsruhe, Germany) was dissolved in distilled water at a concentration of 0.1 mg/mL, and 15 µL of this solution was added to each well, followed by a 2 h incubation at 37 °C. Relative fluorescence units (RFUs) were measured using a Synergy H1 plate reader equipped with a 560 nm excitation/590 nm emission filter set (BioTek; Agilent, Santa Clara, CA, USA). Proliferation and metabolic activity in the absence of compounds were defined as 100% (control), and the values for compound-treated samples were expressed as percentages relative to the control. Selectivity indices were calculated by dividing the IC50 value of each compound against HS-5 cells through the IC50 values against the investigated cell lines.
(§2) The Wilcoxon Rank Sum Test was used to analyze proliferation and metabolic activity in the absence and presence of varying compound concentrations (NCSS 2007 software, version 07.1.2, Kaysville, UT, USA). A p-value < 0.05 was considered statistically significant. IC50 values were calculated using GraphPad Prism 10.1.2. This software reports 95% confidence intervals instead of standard errors. […] Nonetheless, the figures clearly illustrate the IC50 values due to the narrow concentration range tested.

BC cell line = tested on: BC cell line; parameters: method as in PMID 17089326; details: cited from earlier work
HL-60 cells [3] = test: Metabolic activity, resazurin staining, HL-60; type: cell-based; details: for IC50: Homo sapiens, HL-60, 72 h, resazurin, 95% confidence interval in brackets, read-out: IC50 inhibition of metabolic activity; for Selectivity index (metabolic activity): IC50 HS-5 / IC50 HL-60
Procedure: as §1, §2
(§3) Proliferation inhibition often leads to cell death. Therefore, the cytotoxic activity of the compounds was further evaluated using a modified 3-(4,5-dimethylthiazol-2-yl)-2,5-diphenyltetrazolium bromide (MTT) assay, the resazurin (Alamar Blue) assay. Metabolically active cells reduce the non-fluorescent dye resazurin to the fluorescent dye resorufin via mitochondrial reductase activity, which correlates with cell viability. In the first step the metabolic activity of the four isolated flavonoids was investigated, showing a dose-dependent reduction, but to a much lower extent than in the proliferation assays (Table A2). In fact, only 7,3′,4′-trimethoxymyricetin (2) inhibited the metabolic activity of all four cell lines by more than 50% at a concentration of 100 µM.

HS-5 cells [4] = test: Proliferation, [3H]-thymidine uptake, non-malignant HS-5; type: cell-based; details: HS5; HS-5 (non-malignant), 72 h, 95% confidence interval in brackets; read-out: IC50 inhibition of proliferation
Procedure: as §1, with “Subsequently, the compounds were adjusted in the cell culture medium to reach the final concentrations in a total volume of 150 µL and incubated for an additional 72 h.” left out, “Each well was exposed to 2 µCi [^3H]-thymidine (Hartmann Analytic, Braunschweig, Germany) during the final 12–16 h of incubation.” left out, “Resazurin (Carl Roth, Karlsruhe, Germany) was dissolved in distilled water at a concentration of 0.1 mg/mL, and 15 µL of this solution was added to each well, followed by a 2 h incubation at 37 °C.” left out
(§4) The Wilcoxon Rank Sum Test was used to analyze proliferation and metabolic activity in the absence and presence of varying compound concentrations (NCSS 2007 software, version 07.1.2, Kaysville, UT, USA). […] IC50 values were calculated using GraphPad Prism 10.1.2. […]

AMO-1 cells [5] = test: Proliferation, [3H]-thymidine uptake, AMO-1; type: cell-based; details: for IC50: AMO-1, 72 h, 95% confidence interval in brackets, read-out: IC50 inhibition of proliferation; for Selectivity index (proliferation): IC50 HS-5 / IC50 AMO-1
Procedure: as §1, §2

HS-5 cells [6] = test: Metabolic activity, resazurin staining, non-malignant HS-5; type: cell-based; details: HS5, HS-5 (non-malignant), 72 h, 95% confidence interval in brackets, read-out: IC50 inhibition of metabolic activity
Procedure: as §1, with “Subsequently, the compounds were adjusted in the cell culture medium to reach the final concentrations in a total volume of 150 µL and incubated for an additional 72 h.” left out, “Each well was exposed to 2 µCi [^3H]-thymidine (Hartmann Analytic, Braunschweig, Germany) during the final 12–16 h of incubation.” left out, “Resazurin (Carl Roth, Karlsruhe, Germany) was dissolved in distilled water at a concentration of 0.1 mg/mL, and 15 µL of this solution was added to each well, followed by a 2 h incubation at 37 °C.” left out
as §4

AMO-1 cells [7] = test: Metabolic activity, resazurin staining, AMO-1; type: cell-based; details: for IC50: Homo sapiens, AMO1, AMO-1, 72 h, resazurin, 95% confidence interval in brackets, read-out: IC50 inhibition of metabolic activity; for Selectivity index (metabolic activity): IC50 HS-5 / IC50 AMO-1
Procedure: as §1, §2, §3

KMS-12-PE cells [8] = test: Metabolic activity, resazurin staining, KMS-12-PE; type: cell-based; details: for IC50: Homo sapiens, KMS-12-PE, 72 h, resazurin, 95% confidence interval in brackets, read-out: IC50 inhibition of metabolic activity; for Selectivity index (metabolic activity): IC50 HS-5 / IC50 KMS-12-PE
Procedure: as §1, §2, §3

KMS-12-PE cells [9] = test: Proliferation, [3H]-thymidine uptake, KMS-12-PE; type: cell-based; details: for IC50: KMS-12-PE, 72 h, 95% confidence interval in brackets, read-out: IC50 inhibition of proliferation; for Selectivity index (proliferation): IC50 HS-5 / IC50 KMS-12-PE
Procedure: as §1, §2

MOLM-13 cells [10] = test: Proliferation, [3H]-thymidine uptake, MOLM-13; type: cell-based; details: for IC50: Homo sapiens, MOLM-13, 72 h, 95% confidence interval in brackets, read-out: IC50 inhibition of proliferation
Procedure: [The source words this procedure for another cell line and reports this cell line under the same test.] as §1, §2

MOLM-13 cells [11] = test: Metabolic activity, resazurin staining, MOLM-13; type: cell-based; details: for IC50: Homo sapiens, MOLM-13, 72 h, resazurin, 95% confidence interval in brackets, read-out: IC50 inhibition of metabolic activity; for Selectivity index (metabolic activity): IC50 HS-5 / IC50 MOLM-13
Procedure: [The source words this procedure for another cell line and reports this cell line under the same test.] as §1, §2, §3

[12] = tested on: human colon cancer cell line HT-29; parameters: method as in PMID 22685350; details: cited from earlier work
NF-κB p65 = tested on: NF-κB p65; parameters: method as in PMID 22685350; details: read-out: concentration inhibiting NF-κB p65; cited from earlier work
KMS-12-PE = details: 10 nM; cited from earlier work
KMS-12-BM = tested on: KMS-12-BM; parameters: method as in PMID 20088798; details: sister cell line of KMS-12-PE, read-out: IC50 inhibition of proliferation; cited from earlier work
other MM cell lines = tested on: other MM cell lines; parameters: method as in PMID 20088798; details: cited from earlier work

Row | IC50 (HL-60 cells [2]) | IC50 (HL-60 cells [3]) | IC50 (MOLM-13 cells [10]) | IC50 (MOLM-13 cells [11]) | SMILES | Selectivity index (metabolic activity) (HL-60 cells [3]) | IC50 (HS-5 cells [4]) | IC50 (AMO-1 cells [5]; Homo sapiens, AMO1, 72 h) | Selectivity index (proliferation) (AMO-1 cells [5]) | IC50 (HS-5 cells [6]) | IC50 (AMO-1 cells [7]) | Selectivity index (metabolic activity) (AMO-1 cells [7]) | IC50 (KMS-12-PE cells [8]) | Selectivity index (metabolic activity) (KMS-12-PE cells [8]) | IC50 (KMS-12-PE cells [9]; Homo sapiens) | Selectivity index (proliferation) (KMS-12-PE cells [9]) | Selectivity index (metabolic activity) (MOLM-13 cells [11]) | other results
1 |  |  |  |  | N.N.[Cl][Pt][Cl] [Cisplatin] |  |  |  |  |  |  |  |  |  |  |  |  | concentration needed to inhibit HS-5 cells (HS-5 cells [1]): above 1 µM
2 | 1200 nM | 1900 nM | 1100 nM | 1300 nM | C=C1C(=O)O[C@@H]2/C=C(/CO)C3=CC(=O)[C@@](C)(C[C@H](OC(=O)/C(C)=C\C)[C@@H]12)O3 [Compound 6, centratherin] | 2.4 | 2500 nM | 2200 nM | 1.1 | 4500 nM | 2400 nM | 1.9 | 2700 nM | 1.6 | 2200 nM | 1.4 | 3.5 | IC50 (KB cell line): < 300 nM; Selectivity index (proliferation) (HL-60 cells [2]; IC50 HS-5 / IC50 HL-60): 2.1; IC50 (BC cell line): < 300 nM; IC50 (KMS-12-PE cells [9]): 1800 nM; Selectivity index (proliferation) (MOLM-13 cells [10]; IC50 HS-5 / IC50 MOLM-13): 2.2
3 | 1300 nM | 2900 nM | 1400 nM | 1800 nM | C=C1C(=O)O[C@@H]2/C=C(/C)C3=CC(=O)[C@@](C)(C[C@H](OC(=O)/C(C)=C\C)[C@@H]12)O3 [Compound 7, lychnopholide] | 1.7 | 4300 nM | 1800 nM | 2.0 | 4900 nM | 3400 nM | 1.4 | 4000 nM | 1.2 | 2600 nM | 1.7 | 2.8 | IC50 [12]: 1400 nM; IC50 (NF-κB p65): 2900 nM; IC50 (AMO-1 cells [5]): 2200 nM
4 |  |  |  |  | COc1cccc2c1C(=O)c1c(O)c3c(c(O)c1C2=O)C[C@@](O)(C(=O)CO)C[C@@H]3O[C@H]1C[C@H](N)[C@H](O)[C@H](C)O1 [doxorubicin] |  |  |  |  |  |  |  |  |  |  |  |  | proliferation inhibited to (KMS-12-PE): 45.5%
5 |  |  |  |  | Nc1cccc2c1CN(C1CCC(=O)NC1=O)C2=O (centres unmarked) [lenalidomide] |  |  |  |  |  |  |  |  |  |  |  |  | IC50 (KMS-12-BM): 57 nM; IC50 concentrations (in words) (other MM cell lines): high µM range
